Assays:
[1] = tested on: broad spectrum of microorganisms; conditions: background statement; cited from earlier work
[2] = tested on: biofilm fouling of CO2 scrubbers; assay: Field test of CO2 scrubbers in an ethanol fermentation plant; conditions: 30 minute treatment at 75-100 ppm PFA, ambient temperature, 80 gallons per minute
Experimental: Removal and/or prevention of biofilm fouling of CO2 scrubbers was tested with peroxyformic acid. Such scrubbers were evaluated in an ethanol fermentation plant which conventionally employs CIP cleaning process with hot caustic recirculated through the system every few weeks to clean any biofilm which has accumulated since the prior CIP cleaning cycle. This problem to be solved is the prevention of biofilm in the systems instead of removal of the biofilm after the same has been formed. The prevention of biofilm is more desirable than removal, as biofilm scuffs off and undesirably plugs lines within the system and in an fermentation facility the stream of reclaimed ethanol that goes back into the process may undesirably carry microbes from the biofilm. As a result, the use of performic acid was compared to the conventional CIP cleaning for efficacy. […]

[3] = tested on: Pseudomonas aeruginosa ATCC 15442; assay: Biocidal performance of performic acid, log reduction in synthetic hard water; format: cell-based; conditions: 0.5, 1.0, 2.0 ppm PFA; 10 minutes and 4 hours contact; 25° C.
Experimental: Additional biocidal performance of performic acid was evaluated for log reduction of Pseudomonas aeruginosa as shown in Table 2.

[4] = tested on: P. aeruginosa ATCC 15442 biofilm; assay: Reduction of P. aeruginosa biofilm at different exposure times (ASTM E2562-12 / E2871-12); format: cell-based, Pseudomonas aeruginosa ATCC 15442; conditions: 50 ppm PFA for 15 min to 3 hours vs 200 ppm POAA for 3 hours
Experimental: Reduction of P. aeruginosa Biofilm Using Different Exposure Times of Peroxyformic Acid. P. aeruginosa ATCC 15442 biofilm was grown on the surface of 24 polycarbonate coupons following ASTM method E2562-12: Standard Test Method for Quantification of Pseudomonas aeruginosa Biofilm Grown with High Shear and Continuous Flow using CDC Biofilm Reactor. After 48 hours of biofilm establishment, the coupons were removed from the reactor and placed into individual centrifuge tubes. Three coupons per test condition were tested for disinfectant efficacy using ASTM method E2871-12: Standard Test Method for Evaluating Disinfectant Efficacy against Pseudomonas aeruginosa Biofilm Grown in CDC Biofilm Reactor using Single Tube Method. Sets of three coupons were exposed to 4 mL of 50 ppm PFA for exposure times of 15 minutes, 30 minutes, 1 hour, 2 hours and 3 hours, while coupons treated with 200 ppm POAA were exposed for 3 hours only. […] This was followed with a series of vortexing and sonicating steps to remove any biofilm from the coupon surface into the solution for plating and enumeration.

[5] = tested on: Pseudomonas biofilm; assay: Pseudomonas biofilm on polycarbonate coupons, PFA compared with another peroxyacid; format: cell-based, Pseudomonas aeruginosa; conditions: 50 ppm PFA vs 200 ppm PAA, hard water pH 7.71, 3 hrs exposure
Experimental: Additional biocidal performance of performic acid was evaluated for log reduction of Pseudomonas aeruginosa in comparison to another peroxyacid. A Pseudomonas biofilm was treated with 50 ppm active of PFA and compared to efficacy treated with 200 ppm PAA. Pseudomonas biofilms were grown in a CDC biofilm reactor on a poly carbonate coupons. Appropriate concentration of the treatment substance were diluted in hard water at pH 7.71 diluent. Test chemicals were exposed for 3 hrs after which they were treated with 16 mLs of thiosulfate to neutralize any oxidants. The untreated control and treated Pseudomonas were plated on a TGE media and incubated at 35° C. for 48 hrs. A […] reduction was monitored by colony counting of Pseudomonas on plates.

Row | SMILES | concentration at which it is a good biocide [1] | biofilm formation in CO2 scrubbers (in words) [2] | biocidal efficacy (in words) [3] | anti-biofilm efficacy compared with POAA (in words) [4] | reduction in Pseudomonas aeruginosa compared with peracetic acid (in words) [5]
1 | CC(=O)OO [Peracetic acid] | greater than 80 part per million | – | – | – | –
2 | O=COO [peroxyformic acid] | – | biofilm did not form | beneficially efficacy | greater anti-biofilm efficacy with shorter exposure time and lower concentrations than POAA | substantially increased reduction in Pseudomonas aeruginosa

From patent publication US12290071B2, “Performic acid biofilm prevention for industrial CO2 scrubbers” (ECOLAB USA INC., priority 2016, dated 2025)
